According to patent publication US20070253913A1, “Aerosol formulations for delivery of dihydroergotamine to the systemic circulation via pulmonary inhalation” (priority 2003, published 2007):
Where “and” joins values, the source holds several entries; their conditions need not be identical. Equal values may be shown once. Where a name gives a salt, the structure may show the parent alone. Read-outs that look alike come from different tables or passages of the source.

Experiments:
[1] = Powder stability with accelerated environmental aging, HPLC assay; assay type: physicochemical
Experimental: (§1) DHE particle were produced by the SEDS super critical fluid process as described by Palakadoty et al. (US Application 20030109421). The DHE particulate powder produced was assayed by HPLC to determine purity and the mass mean aerodynamic diameter was determined using an Aerosizer instrument under standard operating conditions known in the art. […] The DHE particulate powder was subject to standard accelerated aging conditions of: (i) 3 months at 40 degrees Celsius and 75% relative humidity; and (ii) 25 degrees Celsius and 60% relative humidity. The DHE particles were placed in a tightly sealed dark glass container and placed in the appropriate incubation ovens for the 3 month period. At the end of the three month period, purity and particle size were again assessed as discussed above.

[2] = Powder stability with accelerated environmental aging, particle size by Aerosizer; assay type: physicochemical; conditions: MMAD
Experimental: as §1

[3] = Pharmacokinetics of DHE in dog serum after DPI inhalation vs intravenous bolus; assay type: in vivo, dogs; conditions: for Tmax: dog serum, inhalation 1 mg DPI
Experimental: In this study, dogs were administered the DHE particles via the DPI format (total dose 1 mg) and by intravenous bolus (total dose 0.5 mg) and DHE levels were measured in dog serum at defined intervals.

[4] = cited from earlier work

Compound | HPLC Assay (%) ([1]; 3 Months @ 25 C./60% RH, sealed dark glass container) | HPLC Assay (%) ([1]; 3 Months @ 40 C./75% RH, sealed dark glass container) | HPLC Assay (%) ([1]; Initial, on production) | Particle Size (microns by Aerosizer) ([2]; 3 Months @ 25 C./60% RH) | Particle Size (microns by Aerosizer) ([2]; 3 Months @ 40 C./75% RH) | Particle Size (microns by Aerosizer) ([2]; Initial, on production) | Tmax ([3]; individual dogs) | blood levels of DHE compared to intravenous delivery ([3]; dog, DPI 1 mg vs iv bolus 0.5 mg, FIG. 1) | time to measurable levels of DHE in the blood after inhalation ([3]; dog, DPI 1 mg, FIG. 1) | bioavailability ([3]; dog, in vivo, dog, inhalation 1.0 mg vs iv bolus 0.5 mg, n=3, read-out: F (bioavailability) Average (%)) | Tmax ([3]; dog, in vivo, inhaled or intranasal, 1 mg, individual dogs, read-out: Tmax (converted)) | Tmax ([3]; dog, in vivo, inhaled or intranasal, 1 mg, n=3, read-out: Tmax Average (converted)) | F (bioavailability) (%) ([3]; dog, inhalation 1.0 mg vs iv bolus 0.5 mg, individual dogs) | bioavailability, administered dose reaching the systemic circulation ([4]; in vivo) | bioavailability ([4]; pulmonary delivery)
CN1C[C@H](C(=O)N[C@]2(C)O[C@@]3(O)[C@@H]4CCCN4C(=O)[C@H](Cc4ccccc4)N3C2=O)C[C@@H]2c3cccc4[nH]cc(c34)C[C@H]21 [DHE, dihydroergotamine] | 101.0% | 102.0% | 98.3% | 1.044 microns | 1.091 microns | 1.131 microns | 10 min | maintained at higher levels over an extended period of time | ≤ 30 s | 52% | 5 min | 6.7 min | 27% and 49% and 80% | 2-10% | –
CN1C[C@H](C(=O)N[C@]2(C)O[C@@]3(O)[C@@H]4CCCN4C(=O)[C@H](Cc4ccccc4)N3C2=O)C=C2c3cccc4[nH]cc(c34)C[C@H]21 [ergotamine tartrate] | – | – | – | – | – | – | – | – | – | – | – | – | – | – | up to 92%
